Results published in patent US8063107B2, “Use of trans-pellitorin as flavor substance” (Symrise AG, priority 2002, dated 2011).
“Also recorded” adds a separate entry of the source. Like-named read-outs stand apart in the source and are kept apart here.

Legend:
[1] = cited from earlier work
group of 6 to 8 testers = test: Tasting of trans-pellitorin in 11 wt. % sugar solution by a group of testers; assay type: in vivo; details: for sensory impression on tasting: approximately 5 ml swallowed
Method: The trans-pellitorin was dissolved in ethanol and the ethanolic solution was then diluted with an 11 wt. % sugar solution (final concentration: c). For tasting, respectively approximately 5 ml of the sugar solution was respectively swallowed.

Structure (SMILES) | sensory impression ([1]; Lebensm.-Wiss. U.-Technol. 1992, 25, 417-421) | sensory impression on tasting (group of 6 to 8 testers; c=10 ppm in 11 wt. % sugar solution) | sensory impression on tasting (group of 6 to 8 testers; c=20 ppm in 11 wt. % sugar solution) | concentration in the final product at which a saliva inducing effect only is observed, no additional sensory impressions (group of 6 to 8 testers; final product, e.g. finished preparation) | sensory impression in taste research (group of 6 to 8 testers; taste research, general statement) | sensory impression ([1]; J. Agric. Food Chem. 1981, 29, 115, Fitoterapia 2001, 72, 197) | sensory impression on tasting in the pure state ([1]; pure state, J. Am. Chem. Soc. 1953, 75, 2584-2586)
C/C=C/C=C\CC/C=C/C(=O)NCC(C)C [spilanthol, 2E,6Z,8E-decatrienoic acid-N-isobutylamide, reference compound] | strongly salivation inducing and tingly or prickly; also recorded: spicy-hot and strongly numbing as well as an astringent |  |  |  |  |  | 
CCCCC/C=C/C=C/C(=O)NCC(C)C [trans-pellitorin, 2E,4E-decadienoic acid-N-isobutylamide] |  | salivation inducing, slightly prickly, not spicy hot | salivation inducing, slightly numbing, slightly fatty, weakly fruity, prickly, persistent, not spicy hot | below 20 ppm | pleasant saliva-inducing and slightly prickly sensory impression, with relatively prolonged effect | primarily numbing | besides an elevated saliva flow, a strong burning effect on the tongue
